TGI data for 24 compounds are collected here from PubChem BioAssay (NCI).

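Tested at 5 concentrations; 48 h exposure; 96-well plates; endpoints linearly interpolated, else capped at highest concentration. TGI is the concentration that stops growth completely.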 Bounds are passed on as bounds.

Among the test systems are NCI-H226 lung; K-562 leukemia; HT29 colon; UO-31 renal; A549 NSCLC; HS 578T breast; SN12C renal; DU-145 prostate; SF-539 CNS; M14 melanoma.
Holding throughout (experiment): growth of human tumour cells (NCI), 48 h

Consider `CC1(c2ccc(Cl)cc2)c2ccccc2C(=O)N1CCCN1C(=O)c2ccccc2C1=O` (centres undefined), for which the TGI in the experiment on NCI-H226 lung was 63.4 µM; in the experiment on K-562 leukemia, over 100 µM; in the experiment with HT29 colon, over 100 µM; in the experiment with UO-31 renal, over 100 µM; with A549 NSCLC, over 100 µM; with HS 578T breast, over 100 µM. Moreover, the TGI in the experiment on SN12C renal and in the experiment with DU-145 prostate was over 100 µM in each case.
With `CC(C)C(Nc1c2ccccc2[n+](C)c2ccccc12)C(=O)O` (centres undefined), the TGI with NCI-H226 lung, in the experiment on K-562 leukemia, in the experiment with HT29 colon, with SF-539 CNS, in the experiment on M14 melanoma and in the experiment with UO-31 renal was over 100 µM in each case. In addition, the TGI with A549 NSCLC and with SN12C renal was over 100 µM throughout.
Regarding `FC(F)(Sc1ncccn1)c1nc2ccccc2o1`, the TGI with NCI-H226 lung, in the experiment on K-562 leukemia, with HT29 colon, in the experiment on SF-539 CNS, with M14 melanoma and in the experiment with UO-31 renal was over 100 µM throughout. Also, the TGI with A549 NSCLC, with SN12C renal and in the experiment on DU-145 prostate was over 100 µM in each case.
`N#Cc1nc(-c2ccsc2)oc1N`: the TGI in the experiment on K-562 leukemia, with HT29 colon, with M14 melanoma, with UO-31 renal, in the experiment with A549 NSCLC and with HS 578T breast was over 100 µM in each case. Moreover, the TGI with SN12C renal and in the experiment with DU-145 prostate was over 100 µM in each case.
On to `Nc1ncnc2c1ncn2C1C(O)C=C(CO)C1O` (centres undefined), for which the TGI in the experiment on NCI-H226 lung, with HT29 colon, in the experiment with SF-539 CNS, in the experiment with UO-31 renal, with A549 NSCLC and with SN12C renal was over 625 µM in each case.
`Cc1cc(C)n(C(=CC(=O)C(Cl)Cl)n2nc(C)cc2C)n1`: the TGI in the experiment with NCI-H226 lung was 2.56 µM; in the experiment with K-562 leukemia, 7.42 µM; with SF-539 CNS, 14.1 µM; with M14 melanoma, 13.3 µM; in the experiment with UO-31 renal it was 27.6 µM; with A549 NSCLC, 67 µM. In addition, the TGI in the experiment with HS 578T breast was over 100 µM; with DU-145 prostate, 23 µM.
Take `O=c1[nH]c(NCCCCCO)nc2nc[nH]c12`: the TGI in the experiment with NCI-H226 lung, in the experiment on K-562 leukemia, with HT29 colon, with M14 melanoma, with UO-31 renal and with HS 578T breast was over 100 µM throughout. Moreover, the TGI with SN12C renal and in the experiment on DU-145 prostate was over 100 µM each time.
In the case of `COC(=O)[C@]1(c2cc3ccccc3[nH]2)CC2CNC1C1OC(C)(C)OC21` (some centres undefined), the TGI in the experiment on NCI-H226 lung, in the experiment on K-562 leukemia, in the experiment on HT29 colon, in the experiment with SF-539 CNS, with M14 melanoma and in the experiment with UO-31 renal was over 100 µM in each case. In addition, the TGI with A549 NSCLC, in the experiment with SN12C renal and in the experiment with DU-145 prostate was over 100 µM each time.
For `COc1cc(C2C3=C(NC(=O)C2C#N)c2ccc4ccccc4c2OCC3)cc(OC)c1OC` (centres undefined), the TGI is over 100 µM with K-562 leukemia; over 100 µM in the experiment with HT29 colon; 42.3 µM with SF-539 CNS; over 100 µM in the experiment with M14 melanoma; 28.3 µM with UO-31 renal; over 100 µM with A549 NSCLC. The TGI in the experiment with HS 578T breast is 68.1 µM; in the experiment with SN12C renal, 38.9 µM; in the experiment on DU-145 prostate it was over 100 µM.
`CC(CSc1nc2c(c(=N)n1-c1ccccc1)c(=S)n(-c1ccccc1)c(=S)n2-c1ccccc1)CN(C)C` (centres undefined): the TGI is 14.2 µM with NCI-H226 lung; 3.14 µM in the experiment on K-562 leukemia; 7.9 µM in the experiment on SF-539 CNS; 3.56 µM with M14 melanoma; over 28.7 µM in the experiment on HS 578T breast; 3.55 µM in the experiment on SN12C renal. In the experiment with DU-145 prostate, the TGI was 3.03 µM.
As to `CN(C)c1ccc(/C=C2\N=C(c3ccccc3)N(c3nc4ccc(Sc5ccccc5)cc4[nH]3)C2=O)cc1`, the TGI was 96.6 µM in the experiment with K-562 leukemia; over 100 µM in the experiment with HT29 colon; over 100 µM in the experiment on M14 melanoma; over 100 µM in the experiment with UO-31 renal; over 100 µM with A549 NSCLC; over 100 µM with HS 578T breast. For the same compound, the TGI with SN12C renal and with DU-145 prostate was over 100 µM throughout.
Consider `COC1=C(OC)C(=O)C(Cc2c(-c3ccccc3)nc3sc(Cl)cn23)=C(C)C1=O`, for which the TGI worked out at 52.4 µM in the experiment on K-562 leukemia; 41.7 µM in the experiment with HT29 colon; 31.6 µM with SF-539 CNS; 33.7 µM in the experiment with M14 melanoma; 30.5 µM in the experiment with UO-31 renal; 52 µM with A549 NSCLC. Also, the TGI in the experiment with HS 578T breast stood at 44.3 µM; in the experiment with SN12C renal, 30.4 µM; in the experiment with DU-145 prostate it was 49.1 µM.
On to `O=C(CN1CCCC1)Nc1ccc2c(c1)C1Oc3ccccc3CC1CO2` (centres undefined), for which the TGI in the experiment with NCI-H226 lung is over 100 µM; with K-562 leukemia it was over 100 µM; with SF-539 CNS, 39.5 µM; in the experiment with M14 melanoma, 36.4 µM; in the experiment with UO-31 renal, 84.4 µM; in the experiment on A549 NSCLC, over 100 µM. Also, the TGI in the experiment with SN12C renal and with DU-145 prostate was over 100 µM throughout.
`CCOC(=O)NCC(=O)NCC(=O)NCC(N)=O`: the TGI in the experiment with NCI-H226 lung, in the experiment with K-562 leukemia, with HT29 colon, in the experiment on M14 melanoma, in the experiment with UO-31 renal and with A549 NSCLC was over 100 µM each time. Further, the TGI in the experiment with HS 578T breast and in the experiment with DU-145 prostate was over 100 µM each time.
Regarding `C[C@]12CC[C@H]3[C@@H](CCC4=C/C(=N/OCCN5CCCCC5)CC[C@@]43C)[C@@H]1CC[C@@H]2O`, the TGI in the experiment on NCI-H226 lung was 48.4 µM; in the experiment with K-562 leukemia it was 7.25 µM; with HT29 colon, 15.2 µM; in the experiment with M14 melanoma, 23.8 µM; in the experiment with UO-31 renal it was 24.7 µM; in the experiment with A549 NSCLC, 34.5 µM. Moreover, the TGI in the experiment on SN12C renal turned out to be 38.2 µM; in the experiment with DU-145 prostate, 63.5 µM.
In the case of `CC(C)(C)[C@H]1NC(=O)CN1C(=O)OCc1ccccc1`, the TGI with NCI-H226 lung, in the experiment on K-562 leukemia, in the experiment on HT29 colon, in the experiment on SF-539 CNS, with M14 melanoma and in the experiment on UO-31 renal was over 100 µM each time. Besides, the TGI with A549 NSCLC, with SN12C renal and in the experiment with DU-145 prostate was over 100 µM throughout.
Take `CCOC(=O)/C(=C/c1cn(C(C)=O)c2ccccc12)P(=O)(OC)OC`: the TGI with K-562 leukemia, in the experiment with HT29 colon, with M14 melanoma, in the experiment on A549 NSCLC, with HS 578T breast and with SN12C renal was over 100 µM in each case. In the experiment with DU-145 prostate, this compound showed a TGI of over 100 µM.
As to `CN(C)CCCNC(=O)N/N=C/c1ccccn1`, the TGI in the experiment with K-562 leukemia, in the experiment with HT29 colon, with SF-539 CNS, in the experiment with M14 melanoma, with UO-31 renal and in the experiment with A549 NSCLC was over 10 µM each time. The TGI in the experiment with HS 578T breast, in the experiment with SN12C renal and with DU-145 prostate was over 10 µM each time.
Take `COC(=O)c1c2c(cc3c1CC1(Cc4cc5c(cc4C1)CCCC5)C3)CCCC2`: the TGI in the experiment with K-562 leukemia, in the experiment on HT29 colon, in the experiment with SF-539 CNS, with M14 melanoma, with UO-31 renal and in the experiment on A549 NSCLC was over 100 µM in each case. Also, the TGI with HS 578T breast and in the experiment with SN12C renal was over 100 µM each time.
Consider `CC(C)(C)C(=O)C(N)C(=O)C(C)(C)C`, for which the TGI in the experiment with K-562 leukemia, in the experiment with SF-539 CNS, with M14 melanoma, with UO-31 renal, in the experiment with A549 NSCLC and in the experiment on HS 578T breast was over 100 µM in each case. The TGI in the experiment with SN12C renal and in the experiment on DU-145 prostate was over 100 µM in each case.
Consider `Cc1cc(C)c(C2=NO[C@@H]3[C@H]2C(=O)C=C2N(Cc4ccccc4)CCO[C@@]23O)c(C)c1`, for which the TGI with NCI-H226 lung, in the experiment with K-562 leukemia, in the experiment on HT29 colon, in the experiment on SF-539 CNS, in the experiment with UO-31 renal and with A549 NSCLC was over 100 µM in each case. This compound had a TGI in the experiment on SN12C renal of over 100 µM.
`C/C(=C\C(=O)O)C(=O)N(C)c1ccccc1I`: the TGI in the experiment on NCI-H226 lung, in the experiment on K-562 leukemia, in the experiment on M14 melanoma, with UO-31 renal, in the experiment on A549 NSCLC and with HS 578T breast was over 100 µM throughout. Moreover, the TGI with SN12C renal and with DU-145 prostate was over 100 µM in each case.
With `Cn1c(COC(=O)NC2CCCCC2)c(COC(=O)NC2CCCCC2)c2ccc3ccccc3c21`, the TGI with NCI-H226 lung was 95.8 µM; in the experiment on K-562 leukemia, over 100 µM; with HT29 colon, over 100 µM; with SF-539 CNS, 66.2 µM; in the experiment with M14 melanoma, over 100 µM; in the experiment on UO-31 renal, over 100 µM. In addition, the TGI in the experiment on A549 NSCLC and in the experiment with HS 578T breast was over 100 µM in each case.
Turning to `c1csc(-c2cc(-c3ccsc3)cs2)c1`, the TGI in the experiment with K-562 leukemia, in the experiment on HT29 colon, with SF-539 CNS, with M14 melanoma, in the experiment with UO-31 renal and with A549 NSCLC was over 100 µM throughout. The TGI in the experiment on HS 578T breast, with SN12C renal and with DU-145 prostate was over 100 µM throughout.
